ChEMBL document CHEMBL1144226, “Design and synthesis of 2-amino-isoxazolopyridines as Polo-like kinase inhibitors” (Bioorg Med Chem Lett, 2008)
Calls of active or inactive are those of the source. The calls are words filed in the database; no cut-off is given here.

Tests used:
[1] = target: Serine/threonine-protein kinase PLK1 (Homo sapiens, UniProt P53350)
[2] = target: Serine/threonine-protein kinase PLK2 (Homo sapiens, UniProt Q9NYY3)
[3] = target: Serine/threonine-protein kinase PLK3 (Homo sapiens, UniProt Q9H4B4)
cells = details: Homo sapiens, HCT-116
HCT-116 = test: Effect on morphology in human HCT 116 cells assessed as monopolar spindle phenotype; assay type: functional, cell-based

Chain of Serine/threonine-protein kinase PLK1 (P53350 whole entry): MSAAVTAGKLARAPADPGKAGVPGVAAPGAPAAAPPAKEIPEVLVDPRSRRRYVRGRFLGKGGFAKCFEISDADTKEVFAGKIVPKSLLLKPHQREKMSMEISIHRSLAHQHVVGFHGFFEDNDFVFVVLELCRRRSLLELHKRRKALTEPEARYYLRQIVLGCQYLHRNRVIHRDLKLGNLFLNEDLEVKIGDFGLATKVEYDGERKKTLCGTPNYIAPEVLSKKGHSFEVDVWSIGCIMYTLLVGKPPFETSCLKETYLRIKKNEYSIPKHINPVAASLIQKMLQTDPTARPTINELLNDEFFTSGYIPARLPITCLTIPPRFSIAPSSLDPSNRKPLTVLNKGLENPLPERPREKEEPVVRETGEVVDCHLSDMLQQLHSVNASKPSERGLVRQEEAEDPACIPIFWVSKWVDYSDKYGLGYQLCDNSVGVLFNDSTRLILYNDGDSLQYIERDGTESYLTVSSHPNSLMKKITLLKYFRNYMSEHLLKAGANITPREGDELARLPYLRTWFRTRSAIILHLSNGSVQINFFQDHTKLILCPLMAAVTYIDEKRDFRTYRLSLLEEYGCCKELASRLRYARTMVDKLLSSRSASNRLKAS
Chain of Serine/threonine-protein kinase PLK2 (Q9NYY3 whole entry): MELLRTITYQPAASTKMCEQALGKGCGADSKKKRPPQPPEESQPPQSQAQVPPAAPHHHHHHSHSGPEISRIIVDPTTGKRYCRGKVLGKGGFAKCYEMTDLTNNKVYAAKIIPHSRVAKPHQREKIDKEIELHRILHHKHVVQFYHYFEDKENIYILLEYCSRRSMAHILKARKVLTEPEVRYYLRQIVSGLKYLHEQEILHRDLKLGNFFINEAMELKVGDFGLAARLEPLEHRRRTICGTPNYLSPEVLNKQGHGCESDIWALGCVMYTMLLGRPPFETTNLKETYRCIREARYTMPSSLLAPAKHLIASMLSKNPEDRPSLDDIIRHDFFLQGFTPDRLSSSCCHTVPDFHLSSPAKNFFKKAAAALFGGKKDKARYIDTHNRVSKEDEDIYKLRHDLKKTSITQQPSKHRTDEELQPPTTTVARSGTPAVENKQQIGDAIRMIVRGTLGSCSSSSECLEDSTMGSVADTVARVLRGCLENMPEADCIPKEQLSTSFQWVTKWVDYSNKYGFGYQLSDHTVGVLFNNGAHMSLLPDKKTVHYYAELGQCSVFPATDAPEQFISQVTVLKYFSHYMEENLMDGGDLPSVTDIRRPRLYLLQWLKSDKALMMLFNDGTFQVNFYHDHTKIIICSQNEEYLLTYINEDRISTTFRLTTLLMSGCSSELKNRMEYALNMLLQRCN
Chain of Serine/threonine-protein kinase PLK3 (Q9H4B4 whole entry): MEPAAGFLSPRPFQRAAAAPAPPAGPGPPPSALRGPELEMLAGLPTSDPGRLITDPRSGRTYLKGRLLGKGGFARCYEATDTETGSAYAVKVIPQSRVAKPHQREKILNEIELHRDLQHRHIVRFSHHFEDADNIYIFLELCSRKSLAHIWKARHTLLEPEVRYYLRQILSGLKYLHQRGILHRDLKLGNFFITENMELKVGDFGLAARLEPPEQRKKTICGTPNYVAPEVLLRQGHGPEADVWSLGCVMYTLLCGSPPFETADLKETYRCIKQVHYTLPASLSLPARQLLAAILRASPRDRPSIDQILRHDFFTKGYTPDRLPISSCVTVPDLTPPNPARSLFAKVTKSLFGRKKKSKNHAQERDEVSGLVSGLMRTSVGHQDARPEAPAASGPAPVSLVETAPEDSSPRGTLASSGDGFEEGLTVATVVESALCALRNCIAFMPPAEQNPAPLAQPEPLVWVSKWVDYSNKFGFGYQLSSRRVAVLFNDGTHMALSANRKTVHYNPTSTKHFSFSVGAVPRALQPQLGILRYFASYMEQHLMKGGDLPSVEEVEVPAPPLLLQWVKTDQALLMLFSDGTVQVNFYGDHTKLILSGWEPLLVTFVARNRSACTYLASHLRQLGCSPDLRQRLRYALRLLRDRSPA

| SMILES | IC50 (cells) [µM] | further results |
| --- | --- | --- |
| C[C@H](Nc1cc2c(-c3ccc4c(c3)OCO4)noc2cn1)c1ccccc1 | 7.32 | IC50 [1]: 0.214 µM; IC50 [2]: 0.004 µM; IC50 [3]: 0.024 µM |
| C[C@H](Nc1cc2c(-c3cc(Cl)cc(CCC(N)=O)c3)noc2cn1)c1ccccc1 | 8.35 | Activity (HCT-116): Active |
| C[C@H](Nc1cc2c(-c3cc(Cl)cc(CCCO)c3)noc2cn1)c1ccccc1 | 10.2 | – |
| COc1ccc(-c2noc3cnc(N[C@@H](C)c4ccccc4)cc23)cc1OC | > 20 | – |
| Cc1cc(C)cc(-c2noc3cnc(N[C@@H](C)c4ccccc4)cc23)c1 | > 20 | – |
| C[C@H](Nc1cc2c(-c3cccc(Cl)c3)noc2cn1)c1ccccc1 | > 20 | – |
| Cc1ccc(-c2noc3cnc(N[C@@H](C)c4ccccc4)cc23)cc1 | > 20 | – |
| C[C@H](Nc1cc2c(Cc3ccccc3)noc2cn1)c1ccccc1 | – | IC50 [1]: > 20 µM |
| C[C@H](Nc1cc2c(-c3ccccc3)noc2cn1)c1ccccc1 | > 20 | – |
| Cc1cccc(-c2noc3cnc(N[C@@H](C)c4ccccc4)cc23)c1 | 6.69 | – |
